Values quoted from earlier work, collected in paper PMC12689647, “Evaluation of bromadiolone combined with ciprofloxacin, vitamin D, aspirin, and cinnamon as an apoptosis-mediated rodenticide strategy” (Scientific Reports, 2025).

What was measured:
CYP1A = settings: co-administration, many animal species; cited from earlier work
Albino rats = settings: repeated doses (1 g/kg); cited from earlier work
G361 HMM cells = settings: cited from earlier work

O=C(O)c1cn(C2CC2)c2cc(N3CCNCC3)c(F)cc2c1=O [Ciprofloxacin]
effect on CYP1A activity in hepatic microsomes (CYP1A): inhibits CYP1A activity

CC(=O)Oc1ccccc1C(=O)O [acetylsalicylic acid, Acetylsalicylic acid]
toxic effects of repeated doses (Albino rats): varying degrees of gastroenteritis, hepatitis, nephritis, pulmonary edema

O=c1ccc2cc(O)c(O)cc2o1 [esculetin]
effect on apoptotic signaling molecules (G361 HMM cells): activated apoptotic signaling molecules such as caspase-3 and PARP
